Results as given in publication PMC5787466, “Accelerated bottom-up drug design platform enables the discovery of novel stearoyl-CoA desaturase 1 inhibitors for cancer therapy” (Oncotarget, 2017).
Where two headings read alike, the source gives them in different places.

Key:
[1] = tested on: A498; assay: Proliferation dose-response IC50, A498; assay type: cell-based; conditions: Homo sapiens, proliferative IC50, linear regression modeling of dose-response
Procedure: (§1) Error bars indicate standard deviation for n=2 replicates. […] To evaluate inhibition of SCD1 by these molecules, we used LC/MS to quantify changes in SCD1-catalyzed conversion of stearoyl-CoA to oleoyl-CoA in response to drug treatments in vitro using SCD1 protein extracted from murine liver (Figure 3c, Supplementary Figure 2g). […] Synthesis routes and spectral data including NMR and MS are also provided (Supplementary Figures 3-6).
(§2) Cells were seeded at 5,000 cells/well in clear-bottom 96-well plates in triplicate. Drug treatment was applied at 1:1000 in reduced serum conditions (3%). […] Alternatively, cells were plated 2x10^5/well in 12-well plates (Genesee Scientific) in triplicate prior to drug treatment. After 120-hour treatment, cell number was established using a Coulter Particle Counter (Beckman). Oleic acid-albumin (Sigma Aldrich) was added to media at 5µM, and was applied adjuvant to drug treatment. Drug stocks were prepared in DMSO (Sigma) at 1000x. IC50 dosing per cell line was calculated using CalcuSyn analytical software.

[2] = tested on: ACHN; assay: Proliferation dose-response IC50, ACHN; assay type: cell-based; conditions: Homo sapiens, proliferative IC50, linear regression modeling of dose-response
Procedure: as §1, §2

[3] = tested on: Caki1; assay: Proliferation dose-response IC50, Caki1; assay type: cell-based; conditions: Homo sapiens, CAKI-1; proliferative IC50, linear regression modeling of dose-response
Procedure: as §1, §2

[4] = tested on: A498 ccRCC tumors; assay: Subcutaneous A498 xenograft tumor growth; assay type: in vivo, athymic nude mice; conditions: oral administration in chow, 60, 180 or 600 mg/kg, 4.5 weeks
Procedure: SCD1 expression correlates with poor cancer patient outcomes as evidenced by decreased survival in multiple cancers including gastric, lung, ovarian and renal cell carcinoma (Figure 5a-5b, Supplementary Figure 9a-9b). […] Our findings in thyroid carcinoma similarly present discordancy between tumor response to SCD1 inhibitors and SCD1 expression. SSI-4 was tested in vivo for anti-tumorigenic activity.
Figure 5 SSI-4 attenuates tumor progression Kaplan Meier survival analysis of indicated subtypes of (a) gastric and (b) lung cancer patients sorted into high versus low SCD1 mRNA expression, for multiple disease subtypes. Patient risk assessment at indicated mean follow-up is shown. […] (h) Tumor burden of ACHN pulmonary metastasis in response to SSI-4 treatment (180mg/kg) measured by ex vivo bioluminescent flux, given in photons/second (n=5 per group). ([…]) Tumor burden of ACHN pulmonary metastasis as determined by H&E staining of lungs from (h).
A498 cells were injected subcutaneously in the flank of athymic nude mice at 1x10^6/mouse. […] Tumor burden was measured using calipers. […] Once therapy was completed, lung tissue was harvested and analyzed for tumor burden via ex vivo bioluminescent imaging, and hematoxylin and eosin (H&E) staining of formalin-fixed, paraffin-embedded lung tissue. […]

[5] = Pharmacokinetics after oral (PO) and intravenous (IV) administration, serum; assay type: in vivo, rat; conditions: male, C57BL/6, mouse; for bioavailability: absolute, from AUC0-last and nominal dose; for Cmax / half-life: po
Procedure: (e) Maximum serum concentration (Cmax) of SSI-4 before the administration of a second dose. (f) AUC curve to infinite time. (g) Summary of pharmacokinetics for SSI-4, where absolute bioavailability (%) is quantitated with AUC0-last and nominal dose.
Pharmacokinetic assessment was performed for SSI-4 administered to fasted male C57BL/6 mice either intravenously (IV) or by oral gavage (PO) in DMSO:PEG400:water (10:70:20) as a clear solution at 5 mg/mL (IV dosing), and 1,3 or 10 mg/mL (respectively for the PO dosing). Serum analysis was performed by LC-MS-MS.

[6] = Seven-day oral toxicology study (body weight, serum chemistry); assay type: in vivo, Sprague Dawley rats
Procedure: . […] Chronic treatment at the highest dose in tumor-bearing animals appeared to be well tolerated, with ‹10% reduction in body mass even at the highest dose of 600mg/kg after 4.5 weeks of daily treatment (Supplementary Figure S9d).
Figure 7 SSI-4 has a favorable toxicity profile (a-b) Weight changes in male or female Sprague Dawley rats treated daily with indicated doses of SSI-4 for seven days (n=3 per group). (c-d) Serum profile of indicated enzymes measured on day 8 in male or female Sprague Dawley rats treated daily with indicated doses of SSI-4 for seven days (n=3 per group). (BUN= blood urea nitrogen; AST= aspartate aminotransferase; ALT= alanine aminotransferase; ALK/Phos= alkaline phosphatase).
Sprague dawley rats (6-8 weeks old M/F) were orally gavaged with SS1-4 at the indicated dose daily, for a duration of seven days. For each dose levels 3 male and 3 females were placed on study. Rats were clinically observed and weighed daily. On day 8 rats were euthanatized and blood was collected by cardiac puncture. Blood chemistry was measured by STAT Veterinary laboratory (San Diego CA).

[7] = tested on: 4 ccRCC cell lines; assay: High-throughput proliferative screen, single point; conditions: in at least 2/4 ccRCC cell lines
Text: Using linear regression modeling generated from dose-response curves, proliferative inhibitory concentrations (IC50) of these 5 compounds were established (Figure 3b, Supplementary Figure 2b-2f).
(a) High-throughput proliferative screen
of known and novel SCD1 inhibitors in ccRCC cell lines. Dashed line represents a 40% decrease in proliferation as compared to DMSO
included as a known SCD1 inhibitor. Compounds labeled with an asterisk (*) are single-blinded known SCD1 inhibitors. (b-f) Dose-
the proliferative dose-response line graph.

CNC(=O)c1ccnc(NC(=O)N2CCC(Oc3ccccc3Cl)CC2)c1 [SSI-4] showed an IC50 [1] of 0.009 µM, an IC50 [2] of 0.003 µM and an IC50 [3] of 0.01 µM. For the same compound, the “growth of A498 ccRCC tumors” value [4] was “growth inhibition”, the bioavailability ([5]; oral 10 mg/kg) was 119% and the bioavailability ([5]; oral 30 mg/kg) was 152%. The bioavailability ([5]; oral 100 mg/kg) was 212%, the AUC ([5]; oral, 10 mg/kg) was 20900 ng·h/mL and the AUC ([5]; oral, 30 mg/kg) was 71200 ng·h/mL. It also gave an AUC ([5]; oral, 100 mg/kg) of 336000 ng·h/mL, a Cmax ([5]; 10 mg/kg) of roughly 4320 ng/mL and a half-life ([5]; 10 mg/kg, oral, 10 mg/kg, read-out: T1/2 (converted)) of 3.48 h. For the same compound, the Cmax ([5]; 30 mg/kg) was roughly 15900 ng/mL, the half-life ([5]; 30 mg/kg, oral, 30 mg/kg, read-out: T1/2 (converted)) was 2.71 h and the Cmax ([5]; 100 mg/kg) was roughly 43300 ng/mL. For the same compound, the half-life ([5]; 100 mg/kg, oral, 100 mg/kg, read-out: T1/2 (converted)) was 3.94 h, the half-life ([5]; 100 mg/kg, range over the oral doses 10, 30, 100 mg/kg, read-out: median serum terminal half-life (T1/2)) was 2.71 to 3.94 h and the liver enzymes ([6]; all doses tested, males and females, day 8) was “No abnormalities”. The “changes in body weight” value ([6]; females, all doses tested, daily oral for one week) was “no significant changes”, the “changes in body weight” value ([6]; males, daily oral dose of 300mg/kg for one week) was less than 10% and the decrease in proliferation [7] was greater than 40%.
